Molecular target: T1, GPR158 (Homo sapiens, UniProt Q5T848)
T1 sequence (Q5T848 24-1215): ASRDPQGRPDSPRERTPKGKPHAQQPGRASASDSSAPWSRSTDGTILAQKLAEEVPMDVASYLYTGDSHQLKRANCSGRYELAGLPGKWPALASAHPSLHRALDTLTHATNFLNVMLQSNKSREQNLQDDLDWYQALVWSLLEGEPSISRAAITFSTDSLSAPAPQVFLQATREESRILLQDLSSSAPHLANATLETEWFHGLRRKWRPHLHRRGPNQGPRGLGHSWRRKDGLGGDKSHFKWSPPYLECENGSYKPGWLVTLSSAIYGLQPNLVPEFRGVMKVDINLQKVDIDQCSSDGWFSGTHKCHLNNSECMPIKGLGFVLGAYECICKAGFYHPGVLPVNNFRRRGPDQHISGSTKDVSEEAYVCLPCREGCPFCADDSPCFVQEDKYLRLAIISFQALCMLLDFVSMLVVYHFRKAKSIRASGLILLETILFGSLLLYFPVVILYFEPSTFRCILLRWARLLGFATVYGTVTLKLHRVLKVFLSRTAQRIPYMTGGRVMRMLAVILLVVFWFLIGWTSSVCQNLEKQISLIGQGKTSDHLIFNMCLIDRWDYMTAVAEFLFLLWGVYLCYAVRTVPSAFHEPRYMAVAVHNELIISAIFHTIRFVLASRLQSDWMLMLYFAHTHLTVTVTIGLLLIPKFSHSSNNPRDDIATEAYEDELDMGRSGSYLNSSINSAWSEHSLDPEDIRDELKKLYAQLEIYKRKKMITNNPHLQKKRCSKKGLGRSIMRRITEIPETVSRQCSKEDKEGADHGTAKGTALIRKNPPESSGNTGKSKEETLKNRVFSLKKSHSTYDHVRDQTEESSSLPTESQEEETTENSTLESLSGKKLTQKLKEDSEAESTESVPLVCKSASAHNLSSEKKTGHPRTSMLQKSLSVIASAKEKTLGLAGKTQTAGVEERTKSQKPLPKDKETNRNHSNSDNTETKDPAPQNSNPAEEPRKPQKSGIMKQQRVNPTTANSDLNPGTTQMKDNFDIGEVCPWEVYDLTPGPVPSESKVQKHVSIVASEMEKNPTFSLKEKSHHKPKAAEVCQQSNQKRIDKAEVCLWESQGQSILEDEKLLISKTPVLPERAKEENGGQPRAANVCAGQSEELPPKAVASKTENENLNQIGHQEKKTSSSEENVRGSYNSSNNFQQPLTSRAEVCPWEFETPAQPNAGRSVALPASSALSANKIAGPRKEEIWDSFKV
Assay: Radioligand competition binding assay vs ^3H-glycine
Parameters: expressed in transfected cells; host or cells: HEK293FT
Details: for IC50: membranes from HEK293 cells expressing GPR158, 4 experiments, mean±s.e.m., read-out: IC50 (displacement of ^3H-glycine)
Method: FIG. 8. Radioligand competition binding assay comparing binding of glycine and taurine to GPR158 Membranes from HEK293 cells expressing GPR158 were first incubated with ^3H-Glycine setting binding to 100% and then exposed to increasing concentrations of cold glycine (open circles) or cold taurine (circles with angled-line fill). Data shown are from 4 independent experiments, mean±s.e.m.
Next, the inventors performed radioligand binding assays examining binding of [^3H]-labeled glycine to HEK293 cells expressing GPR158 (FIG. 7A). […] The inventors have then isolated cellular membranes and conducted classical radioligand titration experiments (FIG. 9D). The inventors detected saturable [^3H]-glycine binding to membranes containing GPR158 is substantial excess over linear non-specific binding to membranes devoid of GPR158 (FIG. 9E). Scatchard analysis (FIG. 9F) estimated Kd of GPR158 for glycine to be ~3 μM. The inventors further performed binding competition experiments directly comparing the ability of glycine and taurine to displace [^3H]-labeled glycine bound to GPR158 (FIG. 8).
The functional data shown represent the average±SEM of 3-9 individual experiments each performed in triplicate or indicated in each figure and expressed as means±standard error means (s.e.m). For cAMP assays, cells transfected with empty vector were used as control and one-way ANOVA test was performed. For the GAP assay, cells with the same transfection conditions were compared on their treatment and two-way ANOVA test was performed. The non-linear regression curve was used to fit on the dose response curve giving the IC50 value. For the flow cytometry and radioligand binding assays cells transfected with empty vector were used as control and two-way ANOVA test was performed. For the radioligand competition assay, dissociation-One phase exponential decay was used to fit on data and give the Ki value. For the ITC dose response curve, the non-linear regression curve was used to fit on the curve. […] For the electrophysiology experiments changes was assessed in nonparametric t-test; Wilcoxon test. […]

NCC(=O)O [glycine]
IC50: ~3 µM

NCCS(=O)(=O)O [taurine, 2-aminoethanesulfonic acid]
affinity of taurine relative to glycine (competition binding IC50 comparison): two fold lower affinity | IC50: ~6 µM

From patent publication US20260376293A1, “METHODS FOR STUDYING GPR158 PHARMACOLOGY AND IDENTIFICATION OF ITS LIGANDS” (UNIVERSITY OF FLORIDA RESEARCH FOUNDATION, INCORPORATED, priority 2022, published 2026)
